Structures are written as SMILES. Where “and” joins values, the source holds several entries; their conditions need not be identical. Identical values can stand only once. Toxic doses and inconclusive results are not listed.

The record followed here is PubChem BioAssay AID248 (DTP/NCI, 2004).

This assay concerns L1210 leukemia ip in BDF1 mice, survival T/C. As to the kind of experiment: NCI In Vivo Anticancer Drug Screen. Data for tumor model L1210 Leukemia (intraperitoneal) in B6D2F1 (BDF1) mice. Conditions: endpoint: mean survival time, higher = longer survival. In short, it runs like this:
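Read-out is survival time, reported as the treated-group measurement over the vehicle-control measurement.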

Setting [1] is: dose: 100.0 mg/kg/injection, schedule: Q01DX001 (ip), vehicle: saline.
Where [2] appears, read: dose: 200.0 mg/kg/injection, schedule: Q01DX001 (ip), vehicle: saline.
The mark [3] stands for this setting: dose: 50.0 mg/kg/injection, schedule: Q01DX Z (ip), vehicle: methylcellulose (MC).
Setting [4] is: dose: 100.0 mg/kg/injection, schedule: Q01DX009 (ip), vehicle: Klucel (hydroxypropylcellulose) (HPC).
The mark [5] stands for this setting: dose: 400.0 mg/kg/injection, schedule: Q01DX009 (ip), vehicle: Klucel (hydroxypropylcellulose) (HPC).
Where [6] appears, read: dose: 100.0 mg/kg/injection, schedule: Q01DX009 (ip), vehicle: saline with Tween-80.
Setting [7] is: dose: 200.0 mg/kg/injection, schedule: Q01DX009 (ip), vehicle: saline with Tween-80.
Where [8] appears, read: dose: 50.0 mg/kg/injection, schedule: Q01DX009 (ip), vehicle: saline with Tween-80.

For `COc1ccc([I+]c2ccc(OC)cc2)cc1`, the T/C is 100 % of control (dose: 0.63 mg/kg/injection, schedule: Q01DX009 (ip), vehicle: water); 101 % of control (dose: 1.25 mg/kg/injection, schedule: Q01DX009 (ip), vehicle: water); 105 % of control (dose: 2.5 mg/kg/injection, schedule: Q01DX009 (ip), vehicle: water); 103 % of control (dose: 2.5 mg/kg/injection, schedule: Q04DX003 (ip), vehicle: water); 103 % of control (dose: 3.12 mg/kg/injection, schedule: Q01DX009 (ip), vehicle: saline); 108 % of control (dose: 5.0 mg/kg/injection, schedule: Q04DX003 (ip), vehicle: water). In addition, the T/C was 107 % of control (dose: 6.25 mg/kg/injection, schedule: Q01DX009 (ip), vehicle: saline); 101 % of control (dose: 10.0 mg/kg/injection, schedule: Q04DX003 (ip), vehicle: water); 91 % of control (dose: 12.5 mg/kg/injection, schedule: Q01DX009 (ip), vehicle: saline); 103 % of control (dose: 50.0 mg/kg/injection, schedule: Q04DX003 (ip), vehicle: acetone); 111 % of control under setting [1]; 100 % of control (dose: 100.0 mg/kg/injection, schedule: Q04DX003 (ip), vehicle: acetone). Further, under setting [2], the T/C is 109 % of control.

For the compound `CC(C)CN1CC(Br)C(=O)NC1=O` (stereo not drawn), the T/C (dose: 25.0 mg/kg/injection, schedule: Q01DX Z (ip), vehicle: methylcellulose (MC)) is 92 % of control and the T/C under setting [3] is 88 % of control.

On to `C#CCNc1ncnc2c1ncn2C1OC(CO)C(O)C1O` (stereo not drawn), for which the T/C reads like this: (dose: 50.0 mg/kg/injection, schedule: Q01DX005 (ip), vehicle: saline) 105 % of control; (dose: 100.0 mg/kg/injection, schedule: Q01DX005 (ip), vehicle: saline) 101 % of control; (dose: 200.0 mg/kg/injection, schedule: Q01DX005 (ip), vehicle: saline) 94 % of control.

Turning to `NOc1ccc([N+](=O)[O-])cc1[N+](=O)[O-]`, the T/C (dose: 100.0 mg/kg/injection, schedule: Q04DX003 (ip), vehicle: saline with Tween-80) is 108 % of control.

Regarding `CCCC(CCC)(C(N)=O)C(=O)O`, the T/C reads like this: (dose: 100.0 mg/kg/injection, schedule: Q01DX009 (ip), vehicle: saline) 102 % of control; (dose: 200.0 mg/kg/injection, schedule: Q01DX009 (ip), vehicle: saline) 100 % of control; (dose: 400.0 mg/kg/injection, schedule: Q01DX009 (ip), vehicle: saline) 92 % of control.

Take `COc1cccc2c1C(=O)c1c(O)c3c(c(O)c1C2=O)C[C@@](O)(C(=O)COC(C)=O)C[C@@H]3OC1CC(N)C(O)C(C)O1` (stereo partly drawn): the T/C (dose: 0.45 mg/kg/injection, schedule: Q04DX003 (ip), vehicle: saline) is 120 % of control; the T/C (dose: 0.7 mg/kg/injection, schedule: Q04DX003 (ip), vehicle: saline) is 167 % of control; the T/C (dose: 1.6 mg/kg/injection, schedule: Q04DX003 (ip), vehicle: saline) is 111 % of control; the T/C (dose: 2.4 mg/kg/injection, schedule: Q04DX003 (ip), vehicle: saline) is 104 % of control.

With `Cc1ccc2c(n1)Nc1ncnc(N)c1S2`, the T/C is 96 % of control (dose: 12.5 mg/kg/injection, schedule: Q04DX003 (ip), vehicle: Klucel (hydroxypropylcellulose) (HPC)) and 108 % of control (dose: 25.0 mg/kg/injection, schedule: Q04DX003 (ip), vehicle: Klucel (hydroxypropylcellulose) (HPC)).

As to `NCC(=O)c1cc2ccccc2[n+]([O-])c1`, the T/C was 87 % of control under setting [4]; 92 % of control (dose: 100.0 mg/kg/injection, schedule: Q04DX003 (ip), vehicle: Klucel (hydroxypropylcellulose) (HPC)); 93 % of control (dose: 200.0 mg/kg/injection, schedule: Q01DX009 (ip), vehicle: Klucel (hydroxypropylcellulose) (HPC)); 97 % of control (dose: 200.0 mg/kg/injection, schedule: Q04DX003 (ip), vehicle: Klucel (hydroxypropylcellulose) (HPC)); 93 % of control under setting [5]; 97 % of control (dose: 400.0 mg/kg/injection, schedule: Q04DX003 (ip), vehicle: Klucel (hydroxypropylcellulose) (HPC)).

With `CC(O)CC1CC(=O)CCC1=O` (stereo not drawn), the T/C runs as follows: (dose: 100.0 mg/kg/injection, schedule: Q01DX009 (ip), vehicle: acetone) 96 % of control; (dose: 200.0 mg/kg/injection, schedule: Q01DX009 (ip), vehicle: acetone) 101 % of control; (dose: 400.0 mg/kg/injection, schedule: Q01DX009 (ip), vehicle: acetone) 102 % of control.

Take `NC(=O)NC12CC3CC(CC(C3)C1)C2`: the T/C was 89 % of control under setting [1]; 89 % of control under setting [2]; 101 % of control (dose: 400.0 mg/kg/injection, schedule: Q01DX001 (ip), vehicle: saline).

Take `[N-]=[N+]=C1N=CN=C1c1ncn[nH]1`: the T/C is, setting by setting: (dose: 6.0 mg/kg/injection, schedule: Q01DX015 (ip), vehicle: carboxymethylcellulose (CMC)) 120 % of control; (dose: 50.0 mg/kg/injection, schedule: Q01DX001 (ip), vehicle: carboxymethylcellulose (CMC)) 115 % of control; (dose: 55.0 mg/kg/injection, schedule: Q01DX015 (ip), vehicle: carboxymethylcellulose (CMC)) 172 % of control.

Take `CCCCc1c(C)nc(N)nc1N`: the T/C reads like this: (dose: 3.12 mg/kg/injection, schedule: Q01DX001 (ip), vehicle: Klucel (hydroxypropylcellulose) (HPC)) 105 % of control; (dose: 6.25 mg/kg/injection, schedule: Q01DX001 (ip), vehicle: Klucel (hydroxypropylcellulose) (HPC)) 110 % of control; (dose: 12.5 mg/kg/injection, schedule: Q01DX001 (ip), vehicle: Klucel (hydroxypropylcellulose) (HPC)) 111 % of control; (dose: 25.0 mg/kg/injection, schedule: Q01DX001 (ip), vehicle: saline) 98 % of control.

As to `O=C1c2cccc(Cl)c2C(=O)c2c(NCCO)cccc21`, the T/C by setting is: (dose: 100.0 mg/kg/injection, schedule: Q01DX001 (ip), vehicle: Klucel (hydroxypropylcellulose) (HPC)) 96 % of control; (dose: 200.0 mg/kg/injection, schedule: Q01DX001 (ip), vehicle: Klucel (hydroxypropylcellulose) (HPC)) 101 % of control; (dose: 400.0 mg/kg/injection, schedule: Q01DX001 (ip), vehicle: Klucel (hydroxypropylcellulose) (HPC)) 97 % of control.

In the case of `c1cc2c3c(cccc3c1)-c1nc3ccccc3nc1-2`, the T/C by setting is: under setting [3], 100 % of control; (dose: 100.0 mg/kg/injection, schedule: Q01DX001 (ip), vehicle: carboxymethylcellulose (CMC)) 94 % of control; (dose: 100.0 mg/kg/injection, schedule: Q01DX Z (ip), vehicle: methylcellulose (MC)) 98 % of control; (dose: 125.0 mg/kg/injection, schedule: Q01DX Z (ip), vehicle: methylcellulose (MC)) 102 % of control; (dose: 200.0 mg/kg/injection, schedule: Q01DX001 (ip), vehicle: carboxymethylcellulose (CMC)) 100 % of control; (dose: 400.0 mg/kg/injection, schedule: Q01DX001 (ip), vehicle: carboxymethylcellulose (CMC)) 88 % of control.

On to `CCCNC(=O)Nc1ccc(C(=O)OCC(C)C)cc1`, for which the T/C is, setting by setting: under setting [6], 95 % of control; under setting [7], 93 % of control.

Regarding `O=C(Nc1cccc(C(F)(F)F)c1)c1ccc(F)cc1`, the T/C (dose: 100.0 mg/kg/injection, schedule: Q04DX002 (ip), vehicle: Klucel (hydroxypropylcellulose) (HPC)) is 91 % of control; the T/C (dose: 200.0 mg/kg/injection, schedule: Q04DX002 (ip), vehicle: Klucel (hydroxypropylcellulose) (HPC)) was 102 % of control; the T/C (dose: 400.0 mg/kg/injection, schedule: Q04DX002 (ip), vehicle: Klucel (hydroxypropylcellulose) (HPC)) is 88 % of control.

Regarding `O=C(Nc1cccc(Cl)c1Cl)Oc1ccc(OCc2ccccc2)cc1`, the T/C runs as follows: under setting [4], 87 % of control; under setting [5], 95 % of control.

For the compound `COc1cc(N(CCC#N)CCC#N)nc(OC)n1`, the T/C runs as follows: under setting [8], 96 % of control; under setting [6], 92 % of control; under setting [7], 92 % of control.

In the case of `Cc1cc([N+](=O)[O-])cc(S(=O)(=O)O)c1C`, the T/C under setting [8] is 102 % of control; the T/C under setting [6] was 98 % of control and 92 % of control; the T/C under setting [7] is 98 % of control and 106 % of control; the T/C (dose: 400.0 mg/kg/injection, schedule: Q01DX009 (ip), vehicle: saline with Tween-80) was 98 % of control.

As for `O=[N+]([O-])/C=C/c1ccccc1Br`, the T/C is 96 % of control (dose: 18.75 mg/kg/injection, schedule: Q04DX003 (ip), vehicle: Klucel (hydroxypropylcellulose) (HPC)); 102 % of control (dose: 37.5 mg/kg/injection, schedule: Q04DX003 (ip), vehicle: Klucel (hydroxypropylcellulose) (HPC)); 104 % of control (dose: 75.0 mg/kg/injection, schedule: Q04DX003 (ip), vehicle: Klucel (hydroxypropylcellulose) (HPC)).
